Results: patent US10508107B2, “Morpholine derivative” (Hoffmann-La Roche Inc., priority 2016, dated 2019)
Read-outs that look alike come from different tables or passages of the source.

Columns and labels:
[1] = molecular target: human TAAR1 (Homo sapiens (Human), UniProt Q96RJ0); experiment: cAMP functional assay in HEK293 cells expressing human TAAR1; format: cell-based; settings: for hTAAR1 efficacy*: % agonist activity, β-phenylethylamine = 100% agonism; for EC50: cAMP, HEK293 cells expressing human TAAR1, read-out: hTAAR1 EC50
Sequence of human TAAR1 (Q96RJ0 whole entry): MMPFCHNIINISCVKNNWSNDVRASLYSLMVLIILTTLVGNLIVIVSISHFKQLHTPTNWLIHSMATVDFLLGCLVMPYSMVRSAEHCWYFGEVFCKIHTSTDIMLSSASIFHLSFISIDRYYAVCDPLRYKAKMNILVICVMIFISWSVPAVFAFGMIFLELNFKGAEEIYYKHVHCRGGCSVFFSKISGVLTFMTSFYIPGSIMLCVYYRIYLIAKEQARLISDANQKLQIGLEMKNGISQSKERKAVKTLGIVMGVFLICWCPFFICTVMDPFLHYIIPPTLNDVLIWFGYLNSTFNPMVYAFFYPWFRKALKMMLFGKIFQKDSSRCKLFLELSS
Description: For the construction of expression plasmids the coding sequences of human TAAR 1 were amplified from genomic DNA essentially as described by Lindemann et al.[14]. The Expand High Fidelity PCR System (Roche Diagnostics) was used with 1.5 mM Mg^2+ and purified PCR products were cloned into pCR2.1-TOPO cloning vector (Invitrogen) following the instructions of the manufacturer. PCR products were subcloned into the pIRESneo2 vector (BD Clontech, Palo Alto, Calif.), and expression vectors were sequence verified before introduction in cell lines.
HEK293 cells (ATCC # CRL-1573) were cultured essentially as described by Lindemann et al. (2005). For the generation of stably transfected cell lines HEK293 cells were transfected with the pIRESneo2 expression plasmids containing the TAAR coding sequences (described above) with Lipofectamine 2000 (Invitrogen) according to the instructions of the manufacturer, and 24 hrs post transfection the culture medium was supplemented with 1 mg/ml G418 (Sigma, Buchs, Switzerland). After a culture period of about 10 d clones were isolated, expanded and tested for responsiveness to trace amines (all compounds purchased from Sigma) with the cAMP Biotrak Enzyme immunoassay (EIA) System (Amersham) following the non-acetylation EIA procedure provided by the manufacturer.
cAMP measurements were performed as described previously (Revel et al., Proc. Natl. Acad. Sci. USA 2011, 108, 8485-8490). In brief, cells that expressed human TAAR1 were plated on 96-well plates (BIOCOAT 6640; Becton Dickinson, Allschwil, Switzerland) and incubated for 20 h at 37° C. Prior to stimulation of the cells with a broad concentration range of agonists for 30 min at 37° C., the cells were washed with PBS and preincubated with PBS that contained 1 mM 3-isobutyl-1-methylxanthine for 10 min at 37° C. and 5% CO2. Stimulation with 0.2% DMSO was set as the basal level, and the effect of 30 μM β-PEA was set as the maximal response. Subsequently, the cells were lysed, and cAMP assays were performed according to the manufacturer's instructions (cAMP kit; Upstate/Millipore, Schaffhausen, Switzerland). Finally, the plates were read with a luminometer (1420 Multilabel counter; PerkinElmer, Schwerzenbach, Switzerland), and the amount of cAMP was calculated. The results were obtained from at least three independent experiments. Experiments were run in duplicate or triplicate. EC50 values are presented as mean ±standard deviation (in μM).

[2] = molecular target: hERG potassium channel (Homo sapiens (Human), UniProt Q12809); experiment: hERG whole-cell patch-clamp in stably transfected CHO cells; format: cell-based; settings: for IC50: patch-clamp, CHO cells, 36±1° C.; for selectivity ratio: pH 7.4, hERG IC20 / hTAAR1 EC50, read-out: hERG selectivity ratio versus hTAAR1 EC50
Sequence of hERG potassium channel (Q12809 whole entry): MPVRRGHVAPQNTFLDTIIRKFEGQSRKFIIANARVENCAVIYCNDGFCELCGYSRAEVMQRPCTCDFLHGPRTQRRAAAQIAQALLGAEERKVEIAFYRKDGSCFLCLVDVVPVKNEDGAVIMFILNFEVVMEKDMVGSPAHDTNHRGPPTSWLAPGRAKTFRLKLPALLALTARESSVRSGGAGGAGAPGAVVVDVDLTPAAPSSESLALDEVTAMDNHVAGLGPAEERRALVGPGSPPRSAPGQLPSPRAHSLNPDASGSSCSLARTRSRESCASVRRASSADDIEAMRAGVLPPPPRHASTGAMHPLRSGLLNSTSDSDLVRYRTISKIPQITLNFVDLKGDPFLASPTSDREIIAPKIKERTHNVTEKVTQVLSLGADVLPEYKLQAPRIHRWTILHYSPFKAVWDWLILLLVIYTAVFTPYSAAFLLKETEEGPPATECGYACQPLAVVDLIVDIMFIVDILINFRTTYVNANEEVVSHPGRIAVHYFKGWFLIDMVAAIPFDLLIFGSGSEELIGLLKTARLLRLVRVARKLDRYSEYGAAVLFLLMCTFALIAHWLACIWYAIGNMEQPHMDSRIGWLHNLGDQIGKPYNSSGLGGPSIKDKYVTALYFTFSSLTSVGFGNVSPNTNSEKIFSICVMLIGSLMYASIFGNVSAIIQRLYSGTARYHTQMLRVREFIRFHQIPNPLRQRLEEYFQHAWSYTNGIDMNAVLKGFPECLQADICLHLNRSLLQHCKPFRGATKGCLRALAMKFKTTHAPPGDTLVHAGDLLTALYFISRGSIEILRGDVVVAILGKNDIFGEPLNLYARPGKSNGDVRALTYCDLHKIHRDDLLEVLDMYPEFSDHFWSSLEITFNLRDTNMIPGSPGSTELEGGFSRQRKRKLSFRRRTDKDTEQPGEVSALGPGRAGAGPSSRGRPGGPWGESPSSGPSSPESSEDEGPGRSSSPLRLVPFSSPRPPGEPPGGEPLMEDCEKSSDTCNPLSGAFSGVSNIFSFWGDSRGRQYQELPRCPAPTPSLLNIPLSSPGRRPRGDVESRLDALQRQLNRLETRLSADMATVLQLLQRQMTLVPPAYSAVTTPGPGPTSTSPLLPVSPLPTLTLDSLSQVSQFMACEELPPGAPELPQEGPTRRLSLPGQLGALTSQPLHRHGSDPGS
Description: The whole-cell patch-clamp technique was used to investigate the effects of the test items on hERG (human-ether-a-go-go related gene) potassium channels in stably transfected CHO cells near physiological temperature (36±1° C.). The effects of compounds on hERG K^+-current parameters were evaluated at 4 concentrations (0.3-3-30-300 μM) in at least 3 CHO cells stably expressing the hERG channel. For electrophysiological measurements cells were seeded onto 35 mm sterile culture dishes containing 2 ml culture medium without Hygromycin B. Cells were cultivated at a density that enabled single cells (without visible connections to neighbouring cells) to be measured. Cells were incubated at 37° C. in a humidified atmosphere with 5% CO2 (rel. humidity about 95%). The cells were continuously maintained in and passaged in sterile culture flasks containing nutrient mixture F-12 (DMEM/F-12 with L-Glutamine) supplemented with 10% foetal bovine serum and 10% penicillin/streptomycin solution. […] The 35 mm culture dishes upon which cells were seeded at a density allowing single cells to be recorded were placed on the dish holder of the microscope and continuously perfused (at approximately 1 ml/min) with the bath solution (sodium chloride 150 mM, potassium chloride 4 mM, calcium chloride 1.2 mM, magnesium chloride 1 mM, HEPES 10 mM, pH (NaOH) 7.4) at near physiological temperature (36±1° C.). After formation of a Gigaohm seal between the patch electrodes and individual hERG stably transfected CHO cells (pipette resistance range: 2.0 MΩ-7.0 Mω; seal resistance range: >1 Gω) the cell membrane across the pipette tip was ruptured to assure electrical access to the cell interior (whole-cell patch-configuration). In case the quality of the seal was poor, the process of seal formation was repeated with a different cell and a new pipette. […] This voltage protocol was run at least 10 times at intervals of 10 s. If current density was judged to be too low for measurement, another cell was recorded. […] During wash-in of the test item the voltage protocol indicated above was run continuously again at 10 s intervals until the steady-state level of block was reached. The four test item concentrations of the compound were applied sequentially to 3 cells in a cumulative manner. […] Based on the IC50 value the IC20 was estimated. Each concentration of the test item was analyzed in three experiments (n=3).

[3] = molecular target: human DAT (Homo sapiens (Human), UniProt Q01959); experiment: Binding to dopamine transporter (DAT) in vitro, [3H]-WIN35,428 SPA; settings: for DAT selectivity ratio versus hTAAR1 EC50: DAT Ki / hTAAR1 EC50; for Ki: [3H]-WIN35,428 radioligand
Sequence of human DAT (Q01959 whole entry): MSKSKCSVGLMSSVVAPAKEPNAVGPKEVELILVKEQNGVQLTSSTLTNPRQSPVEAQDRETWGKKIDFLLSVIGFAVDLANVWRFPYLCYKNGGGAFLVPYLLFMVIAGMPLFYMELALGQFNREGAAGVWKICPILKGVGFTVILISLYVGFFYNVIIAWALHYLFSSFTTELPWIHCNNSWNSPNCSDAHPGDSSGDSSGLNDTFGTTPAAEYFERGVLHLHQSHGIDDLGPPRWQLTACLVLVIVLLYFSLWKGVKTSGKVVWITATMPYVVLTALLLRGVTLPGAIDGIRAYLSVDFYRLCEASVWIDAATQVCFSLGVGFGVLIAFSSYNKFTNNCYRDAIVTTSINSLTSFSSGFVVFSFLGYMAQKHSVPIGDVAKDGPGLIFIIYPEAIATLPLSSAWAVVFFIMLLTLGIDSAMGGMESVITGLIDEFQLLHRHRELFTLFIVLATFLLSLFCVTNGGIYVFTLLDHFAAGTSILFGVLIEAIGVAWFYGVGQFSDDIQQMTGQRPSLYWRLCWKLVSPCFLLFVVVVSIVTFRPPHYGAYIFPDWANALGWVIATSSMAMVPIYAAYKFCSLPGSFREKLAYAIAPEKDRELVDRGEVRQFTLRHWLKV
Description: Binding to dopamine transporter (DAT) in vitro. Human embryonic kidney (HEK) 293 cells (Invitrogen, Zug, Switzerland) stably transfected with human DAT were cultured. The cells were collected and washed three times with phosphate-buffered saline (PBS). The pellets were frozen at −80° C. The pellets were then resuspended in 400 ml of 20 mM HEPES-NaOH, pH 7.4, that contained 10 mM EDTA at 4° C. After homogenization with a Polytron (Kinematica, Lucerne,
Switzerland) at 10000 rotations per minute (rpm) for 15 s, the homogenates were centrifuged at 48000×g for 30 min at 4° C. Aliquots of the membrane stocks were frozen at −80° C. All assays were performed at least three times. The test compounds were diluted in […] of binding buffer (252 mM NaCl, 5.4 mM KCl, 20 mM Na2HPO4, 3.52 mM KH2PO4, pH 7.4) and 10 point dilution curves were made and transferred to 96-well white polystyrene assay plates (Sigma-Aldrich, Buchs, Switzerland). […] Twenty microliters of binding buffer alone in the assay plate defined the total binding, whereas binding in the presence of 10 μM indatraline defined nonspecific binding. Frozen DAT membrane stocks were thawed and resuspended to a concentration of approximately 0.04 mg protein/ml binding buffer (1:1 diluted in H2O) using a polytron tissue homogenizer. The membrane homogenates (40 μg/ml) were then lightly mixed for 5-30 min with polyvinyl toluene […] wheat germ agglutinin-coated scintillation proximity assay (WGASPA; Amersham Biosciences) beads at 7.7 mg beads/ml homogenate. One hundred thirty microliters of the membrane/bead mixture were added to each well of the assay plate that contained radioligand and test compounds (final volume in each well, 200 μl) to start the assay, which was incubated for approximately 2 h at room temperature with agitation. The assay plates were then counted in the PVT SPA counting mode of a Packard Topcount. […] Non-linear regression was used to fit the data to sigmoid curves and determine IC50 values for binding and uptake. Ki values for binding and uptake were calculated using the following Cheng-Prusoff equation: Ki=IC50/(1+[S]/Km).

[4] = human, CHO cells stably expressing hERG, pH 7.4, estimated based on the IC50 value
[5] = estimated based on the IC50 value
[6] = human, CHO cells stably expressing hERG

Row | Structure (SMILES) | hTAAR1 efficacy* [1] | EC50 ([1]; listed as example 17) | EC50 [1] | Ratio hERG IC20/hTAAR1 EC50 [2] | IC20 [2, 4] | IC50 [2] | Ratio DAT Ki/hTAAR1 EC50 [3] | DAT selectivity ratio versus hTAAR1 EC50 [3] | Ki [3] | functional activity at hTAAR1 ([1]; in vitro) | IC20 [2, 5] | Ki ([3]; listed as example 1) | EC50 ([1]; listed as example 13) | selectivity ratio [2, 6] | EC50 ([1]; listed as example 14) | Ki ([3]; listed as example 5) | EC50 ([1]; listed as example 18)
1 | Cc1cc(C(=O)Nc2ccc([C@H]3CNCCO3)cc2)ccn1 [Example 17, 2-Methyl-N-[4-[(2S)-morpholin-2-yl]phenyl]pyridine-4-carboxamide] | 45% | 0.673 µM | 0.673 µM | 193 | 130 µM | 518 µM | 15 | 15 fold | 10.3 µM | – | – | – | – | – | – | – | –
2 | CCc1[nH]nc(C(=O)Nc2ccc([C@H]3CNCCO3)cc2)c1C [Example 1, 5-Ethyl-4-methyl-N-[4-[(2S)-morpholin-2-yl]phenyl]-1H-pyrazole-3-carboxamide] | 42% | – | – | – | – | 217 µM | – | – | 27.5 µM | partial agonist | 36.2 µM | 27.5 µM | – | – | – | – | –
3 | O=C(Nc1ccc([C@H]2CNCCO2)cc1)c1cncc(Cl)c1 [Example 13, 5-Chloro-N-[4-[(2S)-morpholin-2-yl]phenyl]pyridine-3-carboxamide] | 37% | – | 0.405 µM | 23 | – | 66 µM | 3 | 3 fold | 1.31 µM | – | 9.14 µM | – | 0.405 µM | 23 | – | – | –
4 | Cc1cc(C(=O)Nc2ccc([C@H]3CNCCO3)cc2)cc(Cl)n1 [Example 14, 2-Chloro-6-methyl-N-[4-[(2S)-morpholin-2-yl]phenyl]pyridine-4-carboxamide] | 53% | – | 0.447 µM | 48 | 21.6 µM | 73.2 µM | 16 | 16 fold | 7.32 µM | – | – | – | – | – | 0.447 µM | – | –
5 | O=C(Nc1ccc([C@H]2CNCCO2)cc1)c1ccn(-c2ccccc2)n1 [Example 20, N-[4-[(2S)-Morpholin-2-yl]phenyl]-1-phenylpyrazole-3-carboxamide] | 59% | – | 2.48 µM | 1 | – | 10.8 µM | >11 | – | > 26.1 µM | – | 2.49 µM | – | – | 1 | – | – | –
6 | O=C(Nc1ccc([C@H]2CNCCO2)cc1)c1ccnc(Cl)c1 [Example 5, 2-Chloro-N-[4-[(2S)-morpholin-2-yl]phenyl]pyridine-4-carboxamide] | 40% | – | 0.0656 µM | 338 | 22.2 µM | 81.7 µM | 23 | 23 fold | 1.52 µM | – | – | – | – | – | – | 1.5 µM | –
7 | Cc1cc(C(=O)Nc2ccc([C@H]3CNCCO3)cc2)cc(C)n1 [Example 18, 2,6-Dimethyl-N-[4-[(2S)-morpholin-2-yl]phenyl]pyridine-4-carboxamide] | 63% | – | 0.827 µM | 177 | 147 µM | 712 µM | >32 | – | > 26.1 µM | – | – | – | – | – | – | – | 0.827 µM
8 | Cc1nc(C(=O)Nc2ccc([C@H]3CNCCO3)cc2)cs1 [Example 19, N-[4-[(2S)-Morpholin-2-yl]phenyl]2-methyl-1,3-thiazole-4-carboxamide] | 32% | – | 1.02 µM | 8 | – | 60.5 µM | 21 | – | 21.9 µM | – | 8.32 µM | – | – | 8 | – | – | –
